Reference: ChEMBL document CHEMBL3885881, “DrugMatrix”

Species: Rattus norvegicus
Test: DrugMatrix - Regimen: Daily Repeat
Type: toxicity, organism-based, Sprague-Dawley
Design: regimen Daily Repeat, gender Male, age 6-8 weeks
Details: in vivo, po, 10 mg/kg, route oral GAVAGE, dose level Low, vehicle .5 % CMC; for ABSOLUTE BASOPHIL / ABSOLUTE EOSINOPHIL / ABSOLUTE LYMPHOCYTE / ABSOLUTE MONOCYTE / ABSOLUTE SEGMENTED NEUTROPHIL / BASOPHIL / EOSINOPHIL / ERYTHROCYTE COUNT / HEMATOCRIT / HEMOGLOBIN / LEUKOCYTE COUNT / LYMPHOCYTE / MEAN CORPUSCULAR HEMOGLOBIN / MEAN CORPUSCULAR HEMOGLOBIN CONCENTRATION / MEAN CORPUSCULAR VOLUME / MONOCYTE / NEUTROPHIL / NUCLEATED RED BLOOD CELLS / PLATELET COUNT: tissue Blood; for ALANINE AMINOTRANSFERASE / ALBUMIN / ALKALINE PHOSPHATASE / ASPARTATE AMINOTRANSFERASE / BLOOD UREA NITROGEN / CARBON DIOXIDE / CHLORIDE / CHOLESTEROL / CREATINE PHOSPHOKINASE / CREATININE / GLUCOSE / LACTATE DEHYDROGENASE / LIPASE / PHOSPHORUS / POTASSIUM / SODIUM / TOTAL BILIRUBIN / TOTAL PROTEIN / URIC ACID: tissue Plasma

With CCOC(=O)[C@H](CCc1ccccc1)N[C@H]1CCc2ccccc2N(CC(=O)O)C1=O [BENAZEPRIL] as the molecule, how does the “ABSOLUTE BASOPHIL” value (72 h, time 3 day) read?
The value was 0 CELLS/uL.

And the “ABSOLUTE EOSINOPHIL” value (72 h, time 3 day)?
The value was 0 CELLS/uL.

And the “ABSOLUTE LYMPHOCYTE” value (72 h, time 3 day)?
Its value is 8474.33 CELLS/uL.

And the “ABSOLUTE MONOCYTE” value (72 h, time 3 day)?
The value was 40.67 CELLS/uL.

What about the “ABSOLUTE SEGMENTED NEUTROPHIL” value (72 h, time 3 day) of the same molecule?
Its value is 418.33 CELLS/uL.

What about the BASOPHIL (72 h, time 3 day) of the same molecule?
The BASOPHIL was 0%.

What about the EOSINOPHIL (72 h, time 3 day) of the same molecule?
Its EOSINOPHIL is 0%.

What about the “ERYTHROCYTE COUNT” value (72 h, time 3 day) of the same molecule?
The value was 5.44 x10E6/uL.

And the HEMATOCRIT (72 h, time 3 day)?
The HEMATOCRIT was 35.27%.

And the HEMOGLOBIN (72 h, time 3 day)?
Its HEMOGLOBIN is 14.3 G/DL.

And the “LEUKOCYTE COUNT” value (72 h, time 3 day)?
The value was 8.93 x10E3/uL.

What about the LYMPHOCYTE (72 h, time 3 day) of the same molecule?
Its LYMPHOCYTE is 94.33%.

And the “MEAN CORPUSCULAR HEMOGLOBIN” value (72 h, time 3 day)?
The value was 26.27 pg.

What about the “MEAN CORPUSCULAR HEMOGLOBIN CONCENTRATION” value (72 h, time 3 day) of the same molecule?
Its value is 40.53 G/DL.

What about the “MEAN CORPUSCULAR VOLUME” value (72 h, time 3 day) of the same molecule?
The value was 64.8 fL.

And the MONOCYTE (72 h, time 3 day)?
Its MONOCYTE is 0.67%.

What about the NEUTROPHIL (72 h, time 3 day) of the same molecule?
Its NEUTROPHIL is 5%.

And the “NUCLEATED RED BLOOD CELLS” value (72 h, time 3 day)?
Its value is 0 /100WBC.

And the “PLATELET COUNT” value (72 h, time 3 day)?
Its value is 1050 x10E3/uL.

And the “ALANINE AMINOTRANSFERASE” value (72 h, time 3 day)?
Its value is 47.33 u/L.

And the ALBUMIN (72 h, time 3 day)?
The ALBUMIN was 4.6 G/DL.

And the “ALKALINE PHOSPHATASE” value (72 h, time 3 day)?
Its value is 428.33 u/L.

And the “ASPARTATE AMINOTRANSFERASE” value (72 h, time 3 day)?
Its value is 84.67 u/L.

What about the “BLOOD UREA NITROGEN” value (72 h, time 3 day) of the same molecule?
The value was 18 mg/dL.

What about the “CARBON DIOXIDE” value (72 h, time 3 day) of the same molecule?
The value was 34.33 mmol/L.

And the CHLORIDE (72 h, time 3 day)?
Its CHLORIDE is 99 MEQ/L.

And the CHOLESTEROL (72 h, time 3 day)?
The CHOLESTEROL was 78.67 mg/dL.

What about the “CREATINE PHOSPHOKINASE” value (72 h, time 3 day) of the same molecule?
Its value is 322 u/L.

What about the CREATININE (72 h, time 3 day) of the same molecule?
The CREATININE was 0.22 mg/dL.

And the GLUCOSE (72 h, time 3 day)?
The GLUCOSE was 135.33 mg/dL.

And the “LACTATE DEHYDROGENASE” value (72 h, time 3 day)?
Its value is 124.67 u/L.

And the LIPASE (72 h, time 3 day)?
The LIPASE was 10 u/L.

And the PHOSPHORUS (72 h, time 3 day)?
Its PHOSPHORUS is 10.63 mg/dL.

And the POTASSIUM (72 h, time 3 day)?
Its POTASSIUM is 6.53 MEQ/L.

What about the SODIUM (72 h, time 3 day) of the same molecule?
Its SODIUM is 145.23 MEQ/L.

What about the “TOTAL BILIRUBIN” value (72 h, time 3 day) of the same molecule?
Its value is 0.2 mg/dL.

What about the “TOTAL PROTEIN” value (72 h, time 3 day) of the same molecule?
Its value is 6.57 G/DL.

And the “URIC ACID” value (72 h, time 3 day)?
Its value is 0.83 mg/dL.

What about the “ABSOLUTE BASOPHIL” value (120 h, time 5 day) of the same molecule?
Its value is 0 CELLS/uL.

What about the “ABSOLUTE EOSINOPHIL” value (120 h, time 5 day) of the same molecule?
Its value is 90 CELLS/uL.

What about the “ABSOLUTE LYMPHOCYTE” value (120 h, time 5 day) of the same molecule?
The value was 12851.33 CELLS/uL.

What about the “ABSOLUTE MONOCYTE” value (120 h, time 5 day) of the same molecule?
The value was 265.67 CELLS/uL.

And the “ABSOLUTE SEGMENTED NEUTROPHIL” value (120 h, time 5 day)?
The value was 1459.67 CELLS/uL.

What about the BASOPHIL (120 h, time 5 day) of the same molecule?
The BASOPHIL was 0%.

What about the EOSINOPHIL (120 h, time 5 day) of the same molecule?
Its EOSINOPHIL is 0.67%.

What about the “ERYTHROCYTE COUNT” value (120 h, time 5 day) of the same molecule?
Its value is 5.31 x10E6/uL.

What about the HEMATOCRIT (120 h, time 5 day) of the same molecule?
Its HEMATOCRIT is 33.43%.

And the HEMOGLOBIN (120 h, time 5 day)?
Its HEMOGLOBIN is 13.47 G/DL.

What about the “LEUKOCYTE COUNT” value (120 h, time 5 day) of the same molecule?
Its value is 14.67 x10E3/uL.

What about the LYMPHOCYTE (120 h, time 5 day) of the same molecule?
The LYMPHOCYTE was 88%.

What about the “MEAN CORPUSCULAR HEMOGLOBIN” value (120 h, time 5 day) of the same molecule?
Its value is 25.33 pg.

What about the “MEAN CORPUSCULAR HEMOGLOBIN CONCENTRATION” value (120 h, time 5 day) of the same molecule?
The value was 40.27 G/DL.

And the “MEAN CORPUSCULAR VOLUME” value (120 h, time 5 day)?
Its value is 62.9 fL.

And the MONOCYTE (120 h, time 5 day)?
The MONOCYTE was 2%.

What about the NEUTROPHIL (120 h, time 5 day) of the same molecule?
Its NEUTROPHIL is 9.33%.

And the “NUCLEATED RED BLOOD CELLS” value (120 h, time 5 day)?
Its value is 0 /100WBC.

And the “PLATELET COUNT” value (120 h, time 5 day)?
Its value is 1304.67 x10E3/uL.

And the “ALANINE AMINOTRANSFERASE” value (120 h, time 5 day)?
Its value is 52.67 u/L.

What about the ALBUMIN (120 h, time 5 day) of the same molecule?
The ALBUMIN was 4.2 G/DL.

And the “ALKALINE PHOSPHATASE” value (120 h, time 5 day)?
Its value is 304.33 u/L.

What about the “ASPARTATE AMINOTRANSFERASE” value (120 h, time 5 day) of the same molecule?
The value was 76 u/L.

And the “BLOOD UREA NITROGEN” value (120 h, time 5 day)?
Its value is 18 mg/dL.

And the “CARBON DIOXIDE” value (120 h, time 5 day)?
Its value is 32 mmol/L.

What about the CHLORIDE (120 h, time 5 day) of the same molecule?
Its CHLORIDE is 102 MEQ/L.

What about the CHOLESTEROL (120 h, time 5 day) of the same molecule?
The CHOLESTEROL was 73.67 mg/dL.

And the “CREATINE PHOSPHOKINASE” value (120 h, time 5 day)?
The value was 234.67 u/L.

And the CREATININE (120 h, time 5 day)?
The CREATININE was 0.15 mg/dL.

What about the GLUCOSE (120 h, time 5 day) of the same molecule?
The GLUCOSE was 160.67 mg/dL.

And the “LACTATE DEHYDROGENASE” value (120 h, time 5 day)?
The value was 106.67 u/L.

What about the LIPASE (120 h, time 5 day) of the same molecule?
The LIPASE was 9 u/L.

And the PHOSPHORUS (120 h, time 5 day)?
The PHOSPHORUS was 13.27 mg/dL.

What about the POTASSIUM (120 h, time 5 day) of the same molecule?
The POTASSIUM was 7.06 MEQ/L.

And the SODIUM (120 h, time 5 day)?
The SODIUM was 144.9 MEQ/L.

And the “TOTAL BILIRUBIN” value (120 h, time 5 day)?
Its value is 0.2 mg/dL.

And the “TOTAL PROTEIN” value (120 h, time 5 day)?
The value was 6.27 G/DL.

What about the “URIC ACID” value (120 h, time 5 day) of the same molecule?
Its value is 1.57 mg/dL.
